Drawing on a melting point compilation (Tetko et al.; mined from patent text by program, amines drawn as free bases though some values may be those of a salt), this text covers melting point for 90 compounds.

For orientation: melting point means the temperature of the solid-liquid transition. For `CCc1n[nH]c2c1nc(-c1ccccc1)c1ccccc12`, the melting point lay in the range of 250 to 251 °C.
As for `CC#CCOc1ccc(S(=O)(=O)N(C)c2c(C(=O)OCC)cnc3c2c(C)nn3C)cc1`, the melting point was in the range of 50 to 52 °C.
Take `CCC(=O)NCC(CCO)c1cccc2ccc(OC)cc12` (stereo not given): the melting point lay within 123 to 125 °C.
For `COc1c(N2CC(C)[C@@](N)(CF)C2)c(F)cc2c(=O)c(C(=O)O)cn([C@@H]3C[C@@H]3F)c12` (stereo not given in full), the melting point is 167 to 169 °C.
On to `COc1cc(OC)nc(NC(=O)NS(=O)(=O)c2ccccc2-c2nccn2C)n1`, for which the melting point lay within 182 to 183 °C.
Consider `Cc1ccc2c(Br)c(Cl)cc([N+](=O)[O-])c2n1`, for which the melting point lay within 141 to 142 °C.
`CC(=O)Nc1nccc(Oc2ccc3c(C(=O)Nc4cccc(C(F)(F)F)c4)cccc3c2)n1` registered a melting point of 216 to 217 °C.
In the case of `O=S1(=O)NCN(CCF)c2cc(F)c(F)cc21` it was 128 to 130 °C; in that of `O=CNc1ccc2c(c1)nc(/C=C/c1ccccc1)n2-c1ccccn1`, 190 to 192 °C.
The compound `COc1ccccc1-n1c(=O)[nH]c2c(C(N)=O)nc(NCCO)nc21` had a melting point of 157 to 160 °C.
The compound `N#Cc1ccc(CBr)c([N+](=O)[O-])c1` yielded a melting point of 85 to 89 °C.
With `ClC(Cl)(Cl)c1nnc(-c2cccc3ccccc23)o1`, the melting point was in the range of 90 to 91.5 °C.
Consider `CCC(O)(c1cncc(OCc2ccc3ccccc3c2)c1)c1nccs1` (stereo not given), for which the melting point was 48 to 50 °C.
In the case of `CCOC(=O)c1c(O)c(O)c(C(=O)OCC)n1Cc1ccccc1` it was 144 to 145 °C.
`CCNc1cc(-c2c(-c3cccc(C)c3)nc3cccnn23)ccn1`: the melting point was in the range of 151 to 153 °C.
For `CCOC(=O)C=Cc1c[nH]c2cnc(-n3cncn3)cc12`, the melting point is 235 to 238 °C.
Compound `COc1ccc(-c2nc(Sc3ccccc3NC(C)=O)[nH]c2-c2ccc(OC)cc2)cc1` gave a melting point of 183 °C.
`Cc1cccc(-c2ccc3c(c2)c2c(n3Cc3ccccc3)COC(=O)C2=O)c1` had a melting point of 225 to 226 °C.
`CN1CCN(N(c2ccccc2)c2nc3c(-c4c(F)cccc4F)n[nH]c3s2)CC1` came in with a melting point of 208 to 210 °C.
`CC(C)(C)OC(=O)N1CCCC[C@@H]1[C@H](CO)c1ccc(Br)cc1` returned a melting point of 117 to 118 °C.
`C[C@H](C#Cc1ccc(Cc2cc3ccccc3s2)s1)N(O)C(N)=O` had a melting point of 157 to 159 °C.
In the case of `c1ccc2c(c1)CCCc1c-2n[nH]c1-c1ccncc1`, the melting point was 217 to 219 °C.
With `Cc1c(C(=O)Nc2ccc(N3CCN(C4CCOCC4)CC3)c(C#N)c2)cnn1-c1ccc(Cl)cc1`, the melting point amounted to 276 °C.
Turning to `COc1ccc(NC(=O)c2ccc(C#N)cc2)cc1`, the melting point is 155 to 157 °C.
Then `CS(=O)c1cnc2c(c1)CCC(c1ccc(Cl)c(Cl)c1)O2` (stereo not given), with 159 to 162 °C; and `CC(C)Oc1ccc(-n2c(C(=O)O)c(C(=O)O)c3cc(Oc4ncccc4C(N)=O)ccc32)cc1`, with 236 to 238 °C; and `CCOC(=O)c1cc(NCc2ccccc2)c(Oc2ccccc2)c(S(=O)(=O)N(C)C)c1`, with 154 to 155 °C.
`CN(C)c1cccc2c(S(=O)(=O)NCCCCn3cnc4c(N)nc5ccccc5c43)cccc12` had a melting point of 200 to 201 °C.
As to `C[C@H]1[C@@H](O)C(C)(C)C(=O)N1c1ccc(C#N)c(C(F)(F)F)c1`, the melting point was in the range of 120 to 121 °C.
Then `Cc1ccc2c(O)cnnc2c1`, with 114 to 115 °C; and `CCC(=O)C1=C(O)CC(c2c(C)c(C)c(C)c(C)c2C)CC1=O` (stereo not given), with 84 °C; and `CCOC(=O)C(CCc1ccccc1)=NO`, with 84 to 85 °C.
In turn, `O=C(Nc1cccc(Cl)c1)c1cc(Br)ccc1O` showed a melting point of 231 to 232 °C.
`CN(C)C(=O)c1cc2n(c1)CCc1ccccc1C2=O` returned a melting point of 148 to 150 °C.
For the compound `COc1cc(-c2nc(NCC(C)C)c3c(C)c(C#N)sc3n2)cc(OC)c1OC`, the melting point was 182 to 184 °C.
In the case of `CCCC=C1SC(=S)N(N=c2sc3ccccc3s2)C1=O`, the melting point is 236 to 238 °C.
With `COC(=O)c1ccc(-c2nc(-c3cccc(C(F)(F)F)c3)co2)cc1`, the melting point lay in the range of 134 to 135 °C.
`COc1cccc(CN2CC(=O)Nc3ncc(-c4ccc(O)cc4)nc32)c1` displayed a melting point of 282 to 283 °C.
In the case of `Cc1cn(-c2ccc(F)cc2)c2ccc(Br)cc12` it was 97 to 98 °C.
`O=C(NCCCCc1ccccc1)OC1CCN(C(=O)OC2CCN(C(=O)Oc3ccc(Oc4ccccc4)cc3)CC2)CC1` came in with a melting point of 50 to 60 °C.
Turning to `CNc1sccc1C(=O)c1ccccc1F`, the melting point lay within 184 to 186 °C.
In the case of `CCNC(=O)c1c(C)cccc1C(C)(C)C` it was 110 to 112 °C; in that of `CC(=NC1CCCCC1)NC12CC3CC(CC(C3)C1)C2`, 185 to 187 °C; in that of `CCN(CC)c1ccc(/C=C/C(=O)CC(=O)/C=C/c2ccc3cc[nH]c3c2)c(OCc2ccccn2)c1`, 92 to 96 °C.
Consider `COCCOc1ccc(/C=C/C(=O)O)c(Oc2ncc(C(F)(F)F)cc2Cl)c1`, for which the melting point was 132 °C.
As to `Cc1noc(NS(=O)(=O)c2cc(OCc3ccccc3)ccc2-c2ccc(CC(C)C)cc2)c1C`, the melting point fell in the range of 96 to 101 °C.
For `OCc1ccc(-c2cn(Cc3ccccc3)c3ccccc23)cc1`, the melting point turned out to be 122 °C.
Consider `ClC1=Nc2ccccc2Cn2cccc21`, for which the melting point lay in the range of 102 to 104 °C.
With `CNC(=O)c1ccc(-c2ccc(NC(=O)NCc3cccnc3)cc2)nc1NCCN(C)C`, the melting point was 163 to 165 °C.
With `Cc1nnc(-c2cccs2)c(=O)n1N`, the melting point amounted to 210 °C.
In the case of `CCc1nc2c(C)cc(C)nc2n1Cc1ccc(C(=C(SC)c2nnn[nH]2)c2ccccc2)cc1` it was 116 to 119 °C.
Compound `C/C=C/CONC(=O)c1nc(-c2ccc(Cl)c(OC)c2F)cc(N)c1Cl` gave a melting point of 154 to 156 °C.
In turn, `CNC(=O)[C@H](Cc1ccc(OC)cc1)NC(=O)[C@@H](N)CC(C)C` returned a melting point of 128 to 132 °C.
In the case of `CC(C)(C#N)c1c(Cl)cc(-n2nc(C(=O)O)c(=O)[nH]c2=O)cc1Cl` it was 157 °C.
In the case of `N#CSCC(I)=C(I)CBr` it was 84 to 86 °C; in that of `Cc1cc2c(c3ccc(=O)[nH]c13)OC(CCCl)C2` (stereo not given), 209 to 211 °C; in that of `O=C(NCC1CNc2ccccc2C1)OCc1ccccc1` (stereo not given), 115 to 116 °C.
In the case of `CC(C)(C)OC(=O)N1CCn2c(c(C(N)=O)c(C#N)c2C2CCN(S(C)(=O)=O)CC2)C1` it was 220 °C; in that of `COc1c(C(N)=O)oc2c3ccccc3n(C)c12`, 174 to 177 °C; in that of `CCSc1cc(C(C)C)ccc1N(CC)c1nc(C)cc(C)n1`, 128 to 130 °C.
In turn, `N#Cc1ccc(N2CCN(Cc3cn4cc(Cl)ccc4n3)CC2)c(F)c1` came in with a melting point of 132 to 133 °C.
In the case of `Cc1cc(C)cc(COC(=O)[C@H](Cc2cccc3ccccc23)NC(=O)OC(C)(C)C)c1` it was 93 to 94 °C; in that of `S=C1CSc2cccc(Cl)c2N1`, 138 to 140 °C.
With `CC(=O)Nc1cccc(-n2ncc(=O)n(Cc3ccc(Cl)cc3F)c2=O)c1`, the melting point stood at 184 °C.
`NS(=O)(=O)c1ccc(-c2c(-c3ccccc3)noc2COCC(F)(F)C(F)(F)CO[N+](=O)[O-])cc1` returned a melting point of 46 °C.
In turn, `CC(C)(C)OC(=O)COc1ccc(/C=C/C(=O)C(F)(F)F)cc1` returned a melting point of 112 to 113 °C.
In the case of `CC(C)(CO)Cc1cc(C(C)(C)C)c(O)c(C(C)(C)C)c1`, the melting point lay within 84 to 86 °C.
Consider `O=Cc1ccc(OCC2CN(Cc3ccccc3)c3ccccc3O2)cc1` (stereo not given), for which the melting point is 92 to 94 °C.
For `O=C1Nc2ccccc2C(=O)N2CC[C@@H]12`, the melting point was 217 to 218 °C.
Compound `CCC(=O)N(CC)c1cccc(-c2ccc3nnc(NC)n3n2)c1` showed a melting point of 172 to 173 °C.
In the case of `Cc1ccc(Oc2ccccc2-n2cc(C(=O)O)nn2)c(O)c1` it was 168 to 169 °C.
Compound `CCOC(=O)Nc1ccc(OC(=O)NC)cc1C` registered a melting point of 153 to 155 °C.
For the compound `CC(O)c1cc2c(c(Cl)n1)OCC2C` (stereo not given), the melting point lay in the range of 67 to 68 °C.
Compound `CCN(CC)c1cccc2nc(Cc3c(Cl)cc(C(F)(F)F)cc3Cl)n(C)c12` registered a melting point of 150 to 151 °C.
In the case of `CNC(=O)Oc1cccc(NC(=O)CC(C)(OC)OC)c1`, the melting point was determined as 139 °C.
In turn, `CC1(C)Oc2ccc(C(F)(F)F)cc2[C@@H](NC(=O)Nc2ccccc2)[C@@H]1O` (relative stereo) displayed a melting point of 174 to 175 °C.
`COc1cc(Nc2c(C#N)cnc3cc(C#CCCN4CCOCC4)c(OC)cc23)c(Cl)cc1Cl` came in with a melting point of 140 to 142 °C.
`COc1ccccc1NC(=O)Nc1nc(Nc2ccccc2-c2ccccc2)nc(N(CCC(=O)O)Cc2cccc3ccccc23)n1` showed a melting point of 218 to 221 °C.
With `CC(O)C(=O)c1ccc(F)cc1F` (stereo not given), the melting point is 49 to 51 °C.
`CN=C(NC#N)C1=CC(C)(COC)Oc2ccc([N+](=O)[O-])cc21` (stereo not given) showed a melting point of 121 to 125 °C.
Consider `Nc1cc(C(F)(F)C(F)(F)F)no1`, for which the melting point was in the range of 86 to 87 °C.
For `COC(=O)CC1CC(c2ccc(Cl)nc2)=NO1` (stereo not given), the melting point was in the range of 94 to 96 °C.
For `COc1ccc(-c2ccc(C(C)=O)cc2)cc1`, the melting point turned out to be 156 °C.
On to `Cc1nnc(-c2cn3c4c(cccc24)CCC3)o1`, for which the melting point lay in the range of 70 to 72 °C.
Then `Cc1nn(-c2cc(OC(C)C)c(Cl)cc2F)c(C)c1N`, with 94 to 96.5 °C; and `CN1CC(CN2C(=O)C3(COc4cc5c(cc43)OCO5)c3ccccc32)OC1=O` (stereo not given), with 98 to 102 °C; and `Cc1c(NC(=O)CC(C)(C)C)cc2c(c1C)OC(C)(C)C2c1ccc(C(C)C)cc1` (stereo not given), with 172 to 173 °C.
As for `COc1ccc(F)c2c1OC(CN1CC(C)(C)Cn3c1nc(-c1ccncn1)cc3=O)CC2` (racemic), the melting point is 136 to 138 °C.
In turn, `CC(C)c1ccc(C(C[N+](=O)[O-])SC(=S)N(C)C)cc1` (stereo not given) showed a melting point of 119 to 120 °C.
Turning to `CCCc1c(OCC#CCCCC(=O)NCCCCc2cccnc2)ccc(C(C)=O)c1O`, the melting point is 77 to 80 °C.
